Data from patent US10294202B2, “Pyrrolidinones as herbicides” (FMC Corporation, priority 2013, dated 2019).

Tests used:
wheat = assay: Test A pre-/postemergence herbicide test; format: in vivo, Triticum aestivum
How it was run: (§1)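 Planted in loam–sand blend; treated the same day preemergence by directed soil spray, while separately grown plants at one- to two-leaf stage got postemergence spray. Compared visually with untreated controls after approximately 10 days; 100 means complete control.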

ducksalad = assay: Test B flooded paddy test; format: in vivo, Heteranthera limosa; details: Flood, scale of 0 to 100 where 0 is no effect and 100 is complete control
How it was run: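 Plants were grown to the 2-leaf stage, then pots were flooded to 3 cm above the soil and compound was applied directly into the paddy water, with that depth held throughout. After 13 to 15 days in a greenhouse, injury was rated visually against untreated controls on a 0 to 100 scale (100 = complete control).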

sedge, umbrella = assay: Test B flooded paddy test; format: in vivo, Cyperus difformis; details: Flood, scale of 0 to 100 where 0 is no effect and 100 is complete control
Description: (§2) Plant species in the flooded paddy test selected from rice (Oryza sativa), sedge, umbrella (small-flower umbrella sedge, Cyperus difformis), ducksalad (Heteranthera limosa), and barnyardgrass (Echinochloa crus-galli) were grown to the 2-leaf stage for testing. At time of treatment, test pots were flooded to 3 cm above the soil surface, treated by application of test compounds directly to the paddy water, and then maintained at that water depth for the duration of the test. Treated plants and controls were maintained in a greenhouse for 13 to 15 days, after which time all species were compared to controls and visually evaluated. Plant response ratings, summarized in Table B, are based on a scale of 0 to 100 where 0 is no effect and 100 is complete control. A dash (-) response means no test result.

crabgrass, large = assay: Test A pre-/postemergence herbicide test; format: in vivo, Digitaria sanguinalis
How it was run: as §1

pigweed = assay: Test A pre-/postemergence herbicide test; format: in vivo, Amaranthus retroflexus
How it was run: as §1

velvetleaf = assay: Test A pre-/postemergence herbicide test; format: in vivo, Abutilon theophrasti
How it was run: as §1

morningglory = assay: Test A pre-/postemergence herbicide test; format: in vivo, Ipomoea spp.
How it was run: as §1

barnyardgrass [1] = assay: Test B flooded paddy test; format: in vivo, Echinochloa crus-galli; details: Flood, scale of 0 to 100 where 0 is no effect and 100 is complete control
Description: as §2

giant foxtail = assay: Test A pre-/postemergence herbicide test; format: in vivo, Setaria faberii
How it was run: as §1

rice = assay: Test B flooded paddy test; format: in vivo, Oryza sativa; details: Flood, scale of 0 to 100 where 0 is no effect and 100 is complete control
Description: as §2

barnyardgrass [2] = assay: Test A pre-/postemergence herbicide test; format: in vivo, Echinochloa crus-galli
How it was run: as §1

corn = assay: Test A pre-/postemergence herbicide test; format: in vivo, Zea mays
How it was run: as §1

[3] = Postemergence, 500 g ai/ha, 0 to 100 scale (0 no effect, 100 complete control)
[4] = Preemergence, 125 g ai/ha, 0 to 100 scale where 0 is no effect and 100 is complete control
[5] = preemergence, 500 g ai/ha, 0 to 100 scale, 0 is no effect and 100 is complete control
[6] = Postemergence, 125 g ai/ha, 0 to 100 scale, 0 is no effect, 100 is complete control
[7] = Postemergence, 125 g ai/ha, 0 to 100 scale, 0 no effect, 100 complete control
[8] = Preemergence, 125 g ai/ha, visual rating on 0 to 100 scale (0 no effect, 100 complete control)
[9] = preemergence, 500 g ai/ha, 0 to 100 scale

O=C1NCC(c2ccc(C(F)(F)F)nc2)C1C(=O)Nc1ccccc1C(F)(F)F (racemic) [Compound 264]
Plant response rating, Wheat (wheat; [3]): 0 | Plant response rating, Wheat (wheat; [4]): 0 | Plant response rating, Wheat (wheat; [5]): 0 | Plant response rating, Ducksalad (ducksalad; 1000 g ai/ha): 100 | Plant response rating, Sedge, Umbrella (sedge, umbrella; 1000 g ai/ha): 0 | Plant response rating, Crabgrass, Large (crabgrass, large; [6]): 80 | Plant response rating, Crabgrass, Large (crabgrass, large; [3]): 90 | Plant response rating, Crabgrass, Large (crabgrass, large; [4]): 100 | Plant response rating, Crabgrass, Large (crabgrass, large; [5]): 100 | Plant response rating, Pigweed (pigweed; [3]): 60 | Plant response rating, Pigweed (pigweed; [4]): 50 | Plant response rating, Pigweed (pigweed; [5]): 80 | Plant response rating, Velvetleaf (velvetleaf; [3]): 30 | Plant response rating, Velvetleaf (velvetleaf; [4]): 0 | Plant response rating, Velvetleaf (velvetleaf; [5]): 0 | Plant response rating, Morningglory (morningglory; [3]): 0 | Plant response rating, Morningglory (morningglory; [4]): 0 | Plant response rating, Morningglory (morningglory; [5]): 0 | Plant response rating, Barnyardgrass (barnyardgrass [1]; 1000 g ai/ha): 0 | Plant response rating, Foxtail, Giant (giant foxtail; [6]): 60 | Plant response rating, Foxtail, Giant (giant foxtail; [3]): 80 | Plant response rating, Foxtail, Giant (giant foxtail; [4]): 80 | Plant response rating, Foxtail, Giant (giant foxtail; [5]): 90 | Plant response rating, Rice (rice; 1000 g ai/ha): 0 | Plant response rating, Barnyardgrass (barnyardgrass [2]; [6]): 30 | Plant response rating, Barnyardgrass (barnyardgrass [2]; [3]): 80 | Plant response rating, Barnyardgrass (barnyardgrass [2]; [4]): 50 | Plant response rating, Barnyardgrass (barnyardgrass [2]; [5]): 90 | Plant response rating, Corn (corn; [6]): 0 | Plant response rating, Corn (corn; [3]): 0 | Plant response rating, Corn (corn; [4]): 0 | Plant response rating, Corn (corn; [5]): 0

N#Cc1cccc(C2CNC(=O)C2C(=O)Nc2cccc(F)c2F)c1 (racemic) [Compound 73]
Plant response rating, Wheat (wheat; [7]): 0 | Plant response rating, Wheat (wheat; [3]): 0 | Wheat plant response rating (wheat; [8]): 0 | Plant response rating, Wheat (wheat; [9]): 0 | Plant response rating, Ducksalad (ducksalad; 250 g ai/ha): 60 | Plant response rating, Sedge, Umbrella (sedge, umbrella; 250 g ai/ha): 0 | Plant response rating, Crabgrass, Large (crabgrass, large; [7]): 50 | Plant response rating, Crabgrass, Large (crabgrass, large; [3]): 80 | Crabgrass, Large plant response rating (crabgrass, large; [8]): 80 | Plant response rating, Crabgrass, Large (crabgrass, large; [9]): 90 | Plant response rating, Pigweed (pigweed; [3]): 0 | Pigweed plant response rating (pigweed; [8]): 0 | Plant response rating, Pigweed (pigweed; [9]): 0 | Plant response rating, Velvetleaf (velvetleaf; [7]): 0 | Plant response rating, Velvetleaf (velvetleaf; [3]): 30 | Velvetleaf plant response rating (velvetleaf; [8]): 0 | Plant response rating, Velvetleaf (velvetleaf; [9]): 0 | Plant response rating, Morningglory (morningglory; [7]): 0 | Plant response rating, Morningglory (morningglory; [3]): 20 | Morningglory plant response rating (morningglory; [8]): 0 | Plant response rating, Morningglory (morningglory; [9]): 0 | Plant response rating, Barnyardgrass (barnyardgrass [1]; 250 g ai/ha): 0 | Plant response rating, Foxtail, Giant (giant foxtail; [7]): 30 | Plant response rating, Foxtail, Giant (giant foxtail; [3]): 80 | Foxtail, Giant plant response rating (giant foxtail; [8]): 80 | Plant response rating, Foxtail, Giant (giant foxtail; [9]): 90 | Plant response rating, Rice (rice; 250 g ai/ha): 0 | Plant response rating, Barnyardgrass (barnyardgrass [2]; [7]): 70 | Plant response rating, Barnyardgrass (barnyardgrass [2]; [3]): 80 | Barnyardgrass plant response rating (barnyardgrass [2]; [8]): 50 | Plant response rating, Barnyardgrass (barnyardgrass [2]; preemergence, 500 g ai/ha, 0 to 100 scale (0 no effect, 100 complete control)): 80 | Plant response rating, Corn (corn; [7]): 0 | Plant response rating, Corn (corn; [3]): 0 | Corn plant response rating (corn; [8]): 0 | Plant response rating, Corn (corn; [9]): 0
